Test system: T1, chitinase from S. griseus
T1 construct: gene chiC; commercial native preparation (Sigma Aldrich), low purity, antibody-reactive band about 23 kDa; authors ascribe it to family 19 chitinase C
Test: fluorimetric release of 4-methylumbelliferone, Michaelis-Menten fit
Type: biochemical, Streptomyces griseus
Settings: McIlvain's buffer, pH 5.5, 37 °C, 1 h; no flavonoid (control of the quercetin series); apparent; commercial low-purity enzyme
Description: fluorimetric release of 4-methylumbelliferone, Michaelis-Menten fit on chitinase from S. griseus

Km: 35.4 ± 4.18 µM
Compound: CC(=O)N[C@H]1[C@H](Oc2ccc3c(C)cc(=O)oc3c2)O[C@H](CO)[C@@H](O[C@@H]2O[C@H](CO)[C@@H](O[C@@H]3O[C@H](CO)[C@@H](O)[C@H](O)[C@H]3NC(C)=O)[C@H](O)[C@H]2NC(C)=O)[C@@H]1O [4-methylumbelliferyl β-d-N,N′,N′-tri-acetyl-chitotrioside]

From article PMC6273270, “Flavonoid Interaction with a Chitinase from Grape Berry Skin: Protein Identification and Modulation of the Enzymatic Activity” (Molecules, 2016)
